# Laboratory results taken from patent US12203089B2, “Plants having increased tolerance to herbicides” (BASF SE, priority 2015, dated 2025).
# Tests used:
# Assay type in all cases: in vivo
# [1] = system: Brassica napus expressing BnaA03g55200D (SEQ ID 12) variant S1041L; experiment: 6-well plate injury test, T1 seeds on vermiculite; settings: 7 days after treatment
# Method: (§1) Transgenic Brassica napus plants are assayed for improved tolerance to azine herbicides like e. g. 6-cyclopentyl-N4-(2,3,4,5,6-pentafluorophenyl)-1,3,5-triazine-2,4-diamine in 6-well plates. Therefore, 5-6 T1 seeds are sown on vermiculite and watered with half-strength murashige skoog nutrient solution, pH 5.8 (Murashige and Skoog (1962) Physiologia Plantarum 15: 473-497). Compounds are dissolved in dimethylsulfoxid (DMSO) and added to the medium (final DMSO concentration 0.1%). Multi well plates are incubated in a growth chamber at 22° C., 75% relative humidity and 110 μmol Phot*m^−2*s^−1 with 14: 10 h light: dark photoperiod. Growth inhibition is evaluated seven to ten days after seeding in comparison to wild type plants. Plant injury is rated on a scale of 0% to 100%, 0% being no injury and 100% being complete death.
# [2] = system: Brassica napus expressing BnaAnng01240D (SEQ ID 20) variant S1038F; experiment: 6-well plate injury test, T1 seeds on vermiculite; settings: 7 days after treatment
# Method: as §1
# [3] = system: Brassica napus expressing BnaA03g55200D (SEQ ID 12) variant S1038F; experiment: 6-well plate injury test, T1 seeds on vermiculite; settings: 7 days after treatment
# Method: as §1
# Brassica napus wildtype [4] = experiment: Greenhouse herbicide tolerance, pre emergent; settings: 1.95 g/ha, 7 days after treatment
# Method: (§2) T1/T2 transgenic plants of Brassica napus containing cellulose synthase sequences or mutated gene variants thereof are tested for improved tolerance to herbicides in greenhouse studies with azine herbicides. For the pre-emergence treatment, the herbicides are applied directly after sowing by means of finely distributing nozzles. The containers are irrigated gently to promote germination and growth and subsequently covered with transparent plastic hoods until the plants have rooted. This cover causes uniform germination of the test plants, unless this has been impaired by the herbicides. For post emergence treatment, the test plants are first grown to a height of 3 to 15 cm, depending on the plant habit, and only then treated with the herbicides. For this purpose, the test plants are either sown directly, and grown in the same containers or they are first grown separately and transplanted into the test containers a few days prior to treatment.
# (§3) Herbicide injury evaluations are taken at 1, 2 and 3 weeks after treatment. Plant biomass reduction is rated on a scale of 0% to 100%, 0% being no reduction of biomass compared to untreated control, and 100% being complete absence of biomass.
# [5] = system: Brassica napus expressing BnaAnng01240D (SEQ ID 20) variant S1038F; experiment: Greenhouse herbicide tolerance, pre emergent; settings: 7 days after treatment
# Method: as §2, §3
# [6] = system: Brassica napus expressing BnaA03g52020D (SEQ ID 15) variant G1015R; experiment: Greenhouse herbicide tolerance, pre emergent; settings: 7 days after treatment
# Method: as §2, §3
# [7] = system: Brassica napus expressing BnaA01g04600D (SEQ ID 21) variant G1012R; experiment: 6-well plate injury test, T1 seeds on vermiculite; settings: BnaA01g04600D G1012R event 1, 7 days after treatment
# Method: as §1
# [8] = system: Brassica napus expressing BnaAnng01240D (SEQ ID 20) variant S1041L; experiment: Greenhouse herbicide tolerance, post emergent; settings: 7 days after treatment
# Method: as §2, §3
# Brassica napus wildtype [9] = experiment: 6-well plate injury test, seeds on vermiculite
# Method: as §1
# [10] = BnaAnng01240D S1038F event 1, 5*10^-8M
# [11] = BnaAnng01240D S1038F event 1, 10^-6M
# [12] = BnaAnng01240D S1038F event 1, 10^-7M
# [13] = BnaAnng01240D S1038F event 1, 10^-8M
compound,measurement,setting,value
"Nc1nc(Nc2c(F)c(F)c(F)c(F)c2F)nc(C2CCCC2)n1 [6-cyclopentyl-N4-(2,3,4,5,6-pentafluorophenyl)-1,3,5-triazine-2,4-diamine]",average phytotox value,"[1]; BnaA03g55200D S1041L event 1, 5*10^-8M",35%
same,average phytotox value,"[1]; BnaA03g55200D S1041L event 1, 10^-6M",95%
same,average phytotox value,"[1]; BnaA03g55200D S1041L event 1, 10^-7M",75%
same,average phytotox value,"[1]; BnaA03g55200D S1041L event 1, 10^-8M",0%
same,average phytotox value,"[1]; BnaA03g55200D S1041L event 1, 10^-9M",0%
same,average phytotox value,"[1]; BnaA03g55200D S1041L event 2, 5*10^-8M",50%
same,average phytotox value,"[1]; BnaA03g55200D S1041L event 2, 10^-6M",90%
same,average phytotox value,"[1]; BnaA03g55200D S1041L event 2, 10^-7M",80%
same,average phytotox value,"[1]; BnaA03g55200D S1041L event 2, 10^-8M",10%
same,average phytotox value,"[1]; BnaA03g55200D S1041L event 2, 10^-9M",0%
same,average phytotox value,"[1]; BnaA03g55200D S1041L event 3, 5*10^-8M",60%
same,average phytotox value,"[1]; BnaA03g55200D S1041L event 3, 10^-6M",85%
same,average phytotox value,"[1]; BnaA03g55200D S1041L event 3, 10^-7M",70%
same,average phytotox value,"[1]; BnaA03g55200D S1041L event 3, 10^-8M",0%
same,average phytotox value,"[1]; BnaA03g55200D S1041L event 3, 10^-9M",0%
same,average phytotox value,"[1]; BnaA03g55200D S1041L event 4, 5*10^-8M",50%
same,average phytotox value,"[1]; BnaA03g55200D S1041L event 4, 10^-6M",85%
same,average phytotox value,"[1]; BnaA03g55200D S1041L event 4, 10^-7M",60%
same,average phytotox value,"[1]; BnaA03g55200D S1041L event 4, 10^-8M",10%
same,average phytotox value,"[1]; BnaA03g55200D S1041L event 4, 10^-9M",0%
same,average phytotox value,[2]; [10],50%
same,average phytotox value,[2]; [11],80%
same,average phytotox value,[2]; [12],60%
same,average phytotox value,[2]; [13],0%
same,average phytotox value,"[2]; BnaAnng01240D S1038F event 1, 10^-9M",0%
same,average phytotox value,"[2]; BnaAnng01240D S1038F event 2, 5*10^-8M",65%
same,average phytotox value,"[2]; BnaAnng01240D S1038F event 2, 10^-6M",80%
same,average phytotox value,"[2]; BnaAnng01240D S1038F event 2, 10^-7M",65%
same,average phytotox value,"[2]; BnaAnng01240D S1038F event 2, 10^-8M",0%
same,average phytotox value,"[2]; BnaAnng01240D S1038F event 2, 10^-9M",0%
same,average phytotox value,"[3]; BnaA03g55200D S1038F event 1, 5*10^-8M",40%
same,average phytotox value,"[3]; BnaA03g55200D S1038F event 1, 10^-6M",80%
same,average phytotox value,"[3]; BnaA03g55200D S1038F event 1, 10^-7M",75%
same,average phytotox value,"[3]; BnaA03g55200D S1038F event 1, 10^-8M",15%
same,average phytotox value,"[3]; BnaA03g55200D S1038F event 1, 10^-9M",0%
same,average phytotox value,"[3]; BnaA03g55200D S1038F event 2, 5*10^-8M",65%
same,average phytotox value,"[3]; BnaA03g55200D S1038F event 2, 10^-6M",90%
same,average phytotox value,"[3]; BnaA03g55200D S1038F event 2, 10^-7M",75%
same,average phytotox value,"[3]; BnaA03g55200D S1038F event 2, 10^-8M",0%
same,average phytotox value,"[3]; BnaA03g55200D S1038F event 2, 10^-9M",0%
same,average phytotox value,"[3]; BnaA03g55200D S1038F event 3, 5*10^-8M",65%
same,average phytotox value,"[3]; BnaA03g55200D S1038F event 3, 10^-6M",90%
same,average phytotox value,"[3]; BnaA03g55200D S1038F event 3, 10^-7M",80%
same,average phytotox value,"[3]; BnaA03g55200D S1038F event 3, 10^-8M",0%
same,average phytotox value,"[3]; BnaA03g55200D S1038F event 3, 10^-9M",0%
same,average phytotox value,Brassica napus wildtype [4],18%
same,average phytotox value,[5]; 1.95 g/ha,1%
same,average phytotox value,[5]; 3.9 g/ha,14%
same,average phytotox value,[5]; 7.8 g/ha,8%
same,average phytotox value,[5]; 15.6 g/ha,26%
same,average phytotox value,[6]; 1.95 g/ha,27%
same,average phytotox value,[6]; 3.9 g/ha,0%
same,average phytotox value,[6]; 7.8 g/ha,0%
same,average phytotox value,[6]; 15.6 g/ha,21%
"Nc1nc(Nc2nc(F)c(F)c(Cl)c2F)nc(C2(F)CCCC2)n1 [N2-(4-chloro-3,5,6-trifluoro-2-pyridyl)-6-(1-fluorocyclopentyl)-1,3,5-triazine-2,4-diamine]",average phytotox value,"[2]; BnaAnng01240D S1038F event 1, 5*10-7",30%
same,average phytotox value,[2]; [10],5%
same,average phytotox value,[2]; [11],85%
same,average phytotox value,[2]; [12],30%
same,average phytotox value,[2]; [13],0%
same,average phytotox value,[7]; 5*10-7,75%
same,average phytotox value,[7]; 5*10^-8M,10%
same,average phytotox value,[7]; 10^-6M,80%
same,average phytotox value,[7]; 10^-7M,10%
same,average phytotox value,[7]; 10^-8M,0%
same,average phytotox value,[8]; 7.8 g/ha,6%
same,average phytotox value,[8]; 15.6 g/ha,9%
same,average phytotox value,[8]; 31.25 g/ha,54%
same,average phytotox value,[8]; 62.5 g/ha,64%
same,average phytotox value,"Brassica napus wildtype [9]; 5*10-7, 7 days after treatment",78%
same,average phytotox value,"Brassica napus wildtype [9]; 5*10^-8M, 7 days after treatment",18%
same,average phytotox value,"Brassica napus wildtype [9]; 10^-6M, 7 days after treatment",85%
same,average phytotox value,"Brassica napus wildtype [9]; 10^-7M, 7 days after treatment",56%
same,average phytotox value,"Brassica napus wildtype [9]; 10^-8M, 7 days after treatment",8%
